Experiment: Microsomal stability assay
Type: in vitro ADME, rat

With `COc1cc(NC(=O)c2ccccn2)ccc1Cl` [Compound 2, ML128] the “Stability κ (decay constant, slope of log concentration vs time profile)” value (rat liver microsome, t1/2=ln2/κ) was 0.116 min^−1 and the half-life (rat, liver microsomes) was 5.99 min.

— paper PMC4684791 (Bioorganic & medicinal chemistry letters, 2015)
